Test results as given in patent publication US8883077B2, “Disinfecting, nonbleaching N-halamine for use with contact lens” (Auburn University, priority 2010, dated 2014).
≈ marks a conversion by molar mass, not a printed value.

What was measured:
[1] = tested on: Staphylococcus aureus (ATCC 25923); assay: Disinfection efficacy in aqueous solution (colony counts after thiosulfate quench); format: cell-based; settings: 5 mg/L total chlorine (25 mg/L compound)
Method: The antimicrobial efficacy of compound 1 was evaluated against the pathogen Staphylococcus aureus (ATCC 25923) in aqueous solution at 22° C. and pH values of 4.5, 7.0, and 9.5. Solutions containing about 1×10^6 colony forming units (CFU) per mL final cell densities of bacteria were prepared and treated with compound 1 at a concentration of 5 mg/L total chlorine concentration (25 mg/L compound concentration). Aliquots were removed at predetermined contact times and quenched with sterile 0.02 N sodium thiosulfate to terminate disinfection action. Then serial dilutions were made into sterile saline solution, and 25 μL aliquots of each dilution were applied to the dried surface of a Petri dish containing tryptic soy agar. After 48 hours of incubation at 37° C., colony counts for each dilution were made. The results of three replicates were averaged. Control samples containing no disinfectant were handled in the same manner. Inactivation of the pathogen was considered to be at least 99.9999% (6 logs) when no viable colonies were detected in the thiosulfate-quenched aliquots.

[2] = Stability in aqueous solution and in Unisol 4 contact lens soak (iodometric/thiosulfate titration); format: physicochemical
Method: The stabilities of compound 1 in aqueous solution and in a contact lens soak formulation (Unisol 4 manufactured by Alcon Laboratories, Inc.) were determined at 22° C. by using the standard iodometric/thiosulfate titration procedure. In water buffered to pH 7.0 at 22° C., the compound at a starting concentration of 10 mg/L total chlorine lost less than 5% of its oxidative chlorine over a storage period of 50 days. In about 4 mL of Unisol 4 at a starting concentration of about 20 mg/L total chlorine in the presence of an ACUVUE 2 contact lens (manufactured by Johnson & Johnson Vision Care, Inc.) in a lens holder manufactured by Alcon Laboratories, Inc., the loss of oxidative chlorine over 60 days was about 21%. In contrast, in an analogous experiment with compound 2 in the Unisol 4, the loss was about 54% over just 30 days.

[3] = Solubility in water at 22° C.; format: physicochemical
Source text: Both of the N-chloramine compounds mentioned above are able to easily be synthesized using methods known to those of skill in the art. Aqueous solutions of the un-halogenated amine precursor for either compound may be simply exposed to a dilute aqueous solution of household bleach (e.g., sodium hypochlorite) or sodium chlorite or by bubbling in chlorine gas to form the N-chloramine. For example, compound 1 has been prepared by Worley, et al., by using chlorine gas to react with an aqueous alkaline solution of the precursor amine (see Tsao, et al., “Novel N-Halamine Disinfectant Compounds”, Biotechnol. Prog. 1991, 7, 60 or Worley, et al., U.S. Pat. No. 5,057,612). It can also be purchased commercially from the HaloSource Corporation in Bothell, Wash. The precursor 2,2,5,5-tetramethyl-4-imidazolidinone is able to be prepared according to the method outlined in Tsao, et al., “Novel N-Halamine Disinfectant Compounds”, Biotechnol. Prog. 1991, 7, 60 or Worley, et al., U.S. Pat. No. 5,057,612. Compound 2 is able to be prepared by reaction of commercial (Aldrich Chemical Company, Milwaukee, Wis.) 2,2,6,6-tetramethyl-4-piperidinol with dilute household bleach. […] Pure compounds 1 and 2 contain 20.1 and 18.5 percent by weight oxidative chlorine, respectively. Their solubilities in water at 22° C. are 1930 and 6815 mg/L, respectively. […]

SMILES | contact time required for 99.9999% inactivation ([1]; pH 4.5, 22° C.) [min] | inactivation after 10 minutes contact ([1]; pH 4.5, 22° C., about 1×10^6 CFU/mL) [%] | contact time required for 99.9999% inactivation ([1]; pH 7.0, 22° C.) [min] | inactivation after 10 minutes contact time ([1]; pH 7.0, 22° C., about 1×10^6 CFU/mL) [%] | contact time required for 99.9999% inactivation ([1]; pH 9.5, 22° C.) [min] | inactivation after 10 minutes contact time ([1]; pH 9.5, 22° C., about 1×10^6 CFU/mL) [%] | loss of oxidative chlorine ([2]; about 4 mL Unisol 4 with ACUVUE 2 contact lens, starting about 20 mg/L total chlorine, 60 days) | loss of oxidative chlorine ([2]; water buffered to pH 7.0, 22° C., starting 10 mg/L total chlorine, storage 50 days) | solubility [3] [µg/mL] | loss of oxidative chlorine ([2]; Unisol 4 with ACUVUE 2 contact lens, analogous experiment, 30 days)
CC1(C)NC(=O)C(C)(C)N1Cl [compound 1, 1-chloro-2,2,5,5-tetramethyl-4-imidazolidinone] | 60 | 96 | 588 | 4.4 | 454 | 50 | about 21% | less than 5% | 1930 (≈ 10.9 mM) | –
CC1(C)CC(O)CC(C)(C)N1Cl [compound 2, 1-chloro-2,2,6,6-tetramethyl-4-piperidinol, reference compound] | – | – | – | – | – | – | – | – | 6820 (≈ 35.5 mM) | about 54%
